The source of these data is US20190117667A1, “ANTICANCER ACTIVITY OF PLATINUM(II) TETRASELENONE COMPLEXES” (King Fahd University of Petroleum and Minerals, priority 2017, published 2019).

Series [1] can be described thus: Solubility in deuterated solvents for 195Pt NMR. The series is classed as physicochemical. Particulars: for 195Pt NMR spectra. As for the experimental part: The FTIR spectra of the ligands and their platinum(II) complexes were carried out on a Nicolet 6700 FTIR spectrophotometer using KBr pellets in the range between 4000 to 400 cm^−1. The ^1H, ^13C and ^77Se NMR spectra were recorded in DMSO-d6 on a Jeol JNM 500 NMR spectrophotometer operating at 500.01, 125.65 and 95.35 MHz respectively. The spectral conditions were; 32 K data points, 0.963 s acquisition time, 3.2 s pulse delay and a 5.75 μs pulse width for ^1H NMR, and 32 K data points, 0.963 s acquisition time, 2.0 s pulse delay and a 5.12 μs pulse width for ^13C NMR. The chemical shifts were measured relative to TMS. The ^77Se NMR chemical shifts were recorded relative to external reference (NaHSeO3 in D2O) at 1308.00 ppm, using 2.0 s pulse delay and using 0.311 s acquisition time. The ^195Pt NMR spectra were recorded in methanol-d4 using a Varian 400 MHz NMR spectrometer at 298 K. The spectra were referenced with respect to potassium tetrachloridoplatinate(II) in D2O at 0 ppm.
The ^195Pt NMR spectroscopy was also employed for thorough characterization of the prepared complexes, as the number of signals and their chemical shift in the ^195Pt NMR spectra provide efficient evidence about the purity and, also generally, the coordination environment of the metal. […]

For series [2], the system named is ovarian carcinoma resistant to cisplatin (A2780R) cells. The experiment in a line: MTT in vitro cytotoxicity assay, A2780R. Format: cell-based, human. Particulars: triplicate, tested up to 50 μM, read-out: In vitro cytotoxicity IC50 ± S.D., A2780R. As for the experimental part:
(§1) All the human cancer cell lines were purchased from European Collection of Cell Cultures (ECACC). The cells were cultivated according to the manufacturer's manuals and maintained in an atmosphere containing 5% CO2 in a humidified incubator at 37° C. The experimental procedure was performed according to the literature. See R. […], PLoS One, 2014, 9(9), e107373, incorporated herein by reference in its entirety. All the experiments were conducted in triplicate. The results were expressed as ICso values along with standard deviations (SD). The significance of the differences between the compared groups of results was assessed by the ANOVA analysis, with p<0.05 considered to be significant (QC Expert 3.2, Statistical software, TriloByte Ltd.). See QC Expert 3.2, Statistical software, TriloByte Ltd., Pardubice, Czech Republic. 2009, incorporated herein by reference in its entirety.

The subject of series [3] is prostate carcinoma (22Rv1) cells. The series is described as follows: MTT in vitro cytotoxicity assay, 22Rv1. The series is classed as cell-based, human. Particulars: for IC50: triplicate, tested up to 50 μM, read-out: In vitro cytotoxicity IC50 ± S.D., 22RvI. As for the experimental part: as §1
The subject of series [4] is human ovarian carcinoma A2780 cells. The series is described as follows: MTT in vitro cytotoxicity assay, A2780. Particulars: triplicate, tested up to 50 μM. Format: cell-based. As for the experimental part:
as §1

Series [5] has as its system human breast adenocarcinoma (MCF7) cells. The experiment in a line: MTT in vitro cytotoxicity assay, MCF7. Format: cell-based. Particulars: triplicate, tested up to 50 μM, read-out: In vitro cytotoxicity IC50 ± S.D., MCF7. As for the experimental part: as §1
Series [6] can be described thus: ESI-MS stability and interaction with L-cysteine and reduced glutathione. Format: physicochemical. Particulars: methanol:water (1:1, v/v), complex 10 μM, Cys 290 μM, GSH 6 μM, immediately vs 24 h after preparation. As for the experimental part: In order to describe the behavior of complexes in different media, i.e. to better understand their stability in protogenic media and interactions of the complexes with sulfur-containing biomolecules under physiological conditions, mass spectrometric experiments involving the interacting systems, containing the mixture of L-cysteine and reduced L-glutathione, were performed.
The electrospray-ionization mass spectrometry (ESI-MS) was used to perform the interaction experiments of the selected two cytotoxic platinum(II) complexes 4 and 5 using the ThermoLCQ Fleet Ion Trap mass spectrometer, in positive ionization mode. […] The measured solutions were injected into the mass spectrometer using the HPLC autosampler (Ultimate 3000, Dionex) in 10 μL spikes. The mass spectra were recorded in the range of 50-1400 m/z. […]
The stability in methanol:water (1:1, v/v) solutions as compared to the pure methanol and interactions of complexes in methanol:water (1:1, v/v)solutions containing the complexes 4 and 5 at the final concentrations of 10 μM and the physiological levels of L-cysteine (Cys) and L-glutathione (GSH), at 290, and 6 μM concentration, respectively, were measured by ESI+MS immediately after preparation and 24 h after preparation. […] The spectra measured immediately after preparation contained mostly the ionic species similar to those identified in reference methanol solutions. […]

Another series relates to testicular cancer. Particulars: cited from earlier work.
Setting [7] is: read-out: In vitro cytotoxicity IC50 ± S.D., A2780.

Values joined by “and” are separate entries in the source; they are usually repeats but may differ in a detail not shown here. Equal entries are not always repeated. Where two headings read alike, the source gives them in different places.

Consider `NC(N)=[Se].NC(N)=[Se].NC(N)=[Se].NC(N)=[Se].[Cl-].[Cl-].[Pt+2]` [Complex 1], for which the “Solubility in methanol-d4 and deuterated N,N-dimethylformamide” value in series [1] is listed as “insufficient solubility”.

With `CCN1CCNC1=[Se].CCN1CCNC1=[Se].CCN1CCNC1=[Se].CCN1CCNC1=[Se].[Cl-].[Cl-].[Pt+2]` [Complex 3, [Pt(N-ethylimidazolidine-2-selenone)4]Cl2], the IC50 in series [2], in series [3], in series [4] (setting [7]) and in series [5] was above 50 µM throughout.

As to `CC(C)N1CCNC1=[Se].CC(C)N1CCNC1=[Se].CC(C)N1CCNC1=[Se].CC(C)N1CCNC1=[Se].[Cl-].[Cl-].[Pt+2]` [Complex 5, [Pt(N-isopropylimidazolidine-2-selenone)4]Cl2], the IC50 in series [2] was above 50 µM; in series [3], above 50 µM; in series [4] (listed as 5, read-out: In vitro cytotoxicity IC50 ± S.D., A2780) it was 30.8 µM; in series [4] (setting [7]), 44.7 µM; in series [5] it was above 50 µM. Further, the “Ligand exchange reactions with L-cysteine and reduced glutathione” value in series [6] is reported as “relatively rapid”.

As to `[Cl-].[Cl-].[Pt+2].[Se]=C1NCCCCN1.[Se]=C1NCCCCN1.[Se]=C1NCCCCN1.[Se]=C1NCCCCN1` [Complex 7], the half-maximal inhibitory concentration (IC50) in series [2], in series [3], in series [4] (setting [7]) and in series [5] was above 50 µM in each case.

Take `[Cl-].[Cl-].[Pt+2].[Se]=C1NCCN1.[Se]=C1NCCN1.[Se]=C1NCCN1.[Se]=C1NCCN1` [Complex 2]: the IC50 in series [2], in series [3], in series [4] (setting [7]) and in series [5] was above 50 µM throughout. The “Solubility in methanol-d4 and deuterated N,N-dimethylformamide” value in series [1] is “insufficient solubility”.

Turning to `N.N.[Cl][Pt][Cl]` [Cisplatin], in the series with testicular cancer (treatment of testicular cancer), the “Cure rate in testicular cancer” value is “over 90%”. Also, in the series with testicular cancer (when tumors are discovered early), the “Cure rate in testicular cancer, tumors discovered early” value is given as around 100%.

As for `[Cl-].[Cl-].[Pt+2].[Se]=C1NCCCN1.[Se]=C1NCCCN1.[Se]=C1NCCCN1.[Se]=C1NCCCN1` [Complex 6], the half-inhibitory concentration (IC50) in series [2], in series [3], in series [4] (setting [7]) and in series [5] was above 50 µM each time.

As for `CCCN1CCNC1=[Se].CCCN1CCNC1=[Se].CCCN1CCNC1=[Se].CCCN1CCNC1=[Se].[Cl-].[Cl-].[Pt+2]` [Complex 4], the IC50 in series [2] is above 50 µM; in series [3], 46.2 ± 3.8 µM; in series [4] (setting [7]), 44.7 µM and 30.8 µM; in series [5], above 50 µM. The “Cytotoxicity against 22Rv1 cells (in words)” value in series [3] is recorded as “some cytotoxicity”. Also, the “Ligand exchange reactions with L-cysteine and reduced glutathione” value in series [6] is on record as “relatively rapid”.
